Measured values as given in paper PMC4987127 (Leukemia, 2015).
Values belong to the compound of their own block, whether it stands above or below them.

Columns and labels:
BTK kinase = BTK kinase (Homo sapiens, UniProt Q06187); assay: BTK signaling in AML cell lines: BTK phosphorylation; type: cell-based; settings: FLT3 wt and FLT3-ITD cell lines
PLCγ = assay: BTK signaling in AML cell lines: downstream mediators; type: cell-based; settings: for effect on PLCγ phosphorylation: direct downstream target of BTK
AKT and ERK = assay: Phosphorylation of AKT and ERK in AML cell lines; type: cell-based
[1] = test system: FLT3-mediated signaling pathways; assay: FLT3-mediated signaling pathways in FLT3-ITD positive cell lines; type: cell-based
[2] = test system: FLT3-ITD mutant AML cell lines (MOLM13, MOLM14 and MV4-11); assay: Proliferation screen of a panel of AML cell lines; type: cell-based; settings: panel of AML cell lines spanning M0–M7; only FLT3-ITD mutant lines MOLM13, MOLM14, MV4-11
[3] = test system: OCI-AML3 and NOMO-1 cells; assay: FLT3-mediated signaling in FLT3 low expression cell lines; type: cell-based
[4] = test system: FLT3-ITD-dependent isogenic BaF3 cell line; assay: Isogenic BaF3 cell proliferation; type: cell-based
FLT3-D835H-BaF3 = assay: Isogenic BaF3 cell proliferation; type: cell-based; settings: Mus musculus
FLT3-D835Y-BaF3 = assay: Isogenic BaF3 cell proliferation; type: cell-based; settings: Mus musculus
TEL-FLT3-wt-BaF3 = assay: Isogenic BaF3 cell proliferation; type: cell-based; settings: Mus musculus
ITD-D835Y = assay: Isogenic BaF3 cell proliferation; type: cell-based
ITD-F691L = assay: Isogenic BaF3 cell proliferation; type: cell-based
FLT3-K663Q = assay: Isogenic BaF3 cell proliferation; type: cell-based
c-Kit Ba/F3 cells = assay: Oncogene-expressing Ba/F3 cell growth; type: cell-based
PDGFRα Ba/F3 cells = assay: Oncogene-expressing Ba/F3 cell growth; type: cell-based
BCR-ABL Ba/F3 cells = assay: Oncogene-expressing Ba/F3 cell growth; type: cell-based
NRAS Ba/F3 cells = assay: Oncogene-expressing Ba/F3 cell growth; type: cell-based
FLT3 kinase = FLT3 kinase (Homo sapiens, UniProt P36888); assay: Binding mode examination; settings: molecular modeling, confirmed by washing-out experiment
FLT3-ITD cell lines = assay: Apoptotic cell death; type: cell-based; settings: concentration- and time-dependent
[5] = test system: FLT3-ITD mutant-expressing primary patient cells; assay: Anti-proliferation on primary patient cells; type: cell-based
[6] = test system: BTK-KD MOLM14 and MOLM13 cells; settings: BTK knockdown MOLM14 and MOLM13
U937 cells = U937 cells ref 11; cited from earlier work
HL60 = HL60 ref 11; cited from earlier work
TF-1 = TF-1 ref 11; cited from earlier work
THP-1 = THP-1 ref 11; cited from earlier work

Chain of BTK kinase (Q06187 whole entry): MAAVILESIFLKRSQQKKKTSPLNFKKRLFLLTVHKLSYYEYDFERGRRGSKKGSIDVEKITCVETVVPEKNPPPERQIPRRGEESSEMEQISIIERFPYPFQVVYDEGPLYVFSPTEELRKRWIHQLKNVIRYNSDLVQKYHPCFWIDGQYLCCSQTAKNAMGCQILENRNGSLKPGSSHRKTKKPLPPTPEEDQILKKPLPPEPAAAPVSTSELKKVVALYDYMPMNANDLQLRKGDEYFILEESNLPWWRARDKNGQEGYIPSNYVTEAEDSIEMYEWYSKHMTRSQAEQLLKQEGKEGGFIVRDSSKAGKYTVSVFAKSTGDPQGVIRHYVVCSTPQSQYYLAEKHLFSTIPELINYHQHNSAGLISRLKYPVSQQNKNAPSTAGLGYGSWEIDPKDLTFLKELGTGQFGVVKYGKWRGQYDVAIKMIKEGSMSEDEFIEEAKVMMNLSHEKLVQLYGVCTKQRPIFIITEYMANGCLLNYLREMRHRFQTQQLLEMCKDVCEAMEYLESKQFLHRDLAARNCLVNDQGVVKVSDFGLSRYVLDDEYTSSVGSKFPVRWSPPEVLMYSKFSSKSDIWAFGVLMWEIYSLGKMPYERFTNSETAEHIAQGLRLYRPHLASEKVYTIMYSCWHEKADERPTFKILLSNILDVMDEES
Chain of FLT3 kinase (P36888 27-993): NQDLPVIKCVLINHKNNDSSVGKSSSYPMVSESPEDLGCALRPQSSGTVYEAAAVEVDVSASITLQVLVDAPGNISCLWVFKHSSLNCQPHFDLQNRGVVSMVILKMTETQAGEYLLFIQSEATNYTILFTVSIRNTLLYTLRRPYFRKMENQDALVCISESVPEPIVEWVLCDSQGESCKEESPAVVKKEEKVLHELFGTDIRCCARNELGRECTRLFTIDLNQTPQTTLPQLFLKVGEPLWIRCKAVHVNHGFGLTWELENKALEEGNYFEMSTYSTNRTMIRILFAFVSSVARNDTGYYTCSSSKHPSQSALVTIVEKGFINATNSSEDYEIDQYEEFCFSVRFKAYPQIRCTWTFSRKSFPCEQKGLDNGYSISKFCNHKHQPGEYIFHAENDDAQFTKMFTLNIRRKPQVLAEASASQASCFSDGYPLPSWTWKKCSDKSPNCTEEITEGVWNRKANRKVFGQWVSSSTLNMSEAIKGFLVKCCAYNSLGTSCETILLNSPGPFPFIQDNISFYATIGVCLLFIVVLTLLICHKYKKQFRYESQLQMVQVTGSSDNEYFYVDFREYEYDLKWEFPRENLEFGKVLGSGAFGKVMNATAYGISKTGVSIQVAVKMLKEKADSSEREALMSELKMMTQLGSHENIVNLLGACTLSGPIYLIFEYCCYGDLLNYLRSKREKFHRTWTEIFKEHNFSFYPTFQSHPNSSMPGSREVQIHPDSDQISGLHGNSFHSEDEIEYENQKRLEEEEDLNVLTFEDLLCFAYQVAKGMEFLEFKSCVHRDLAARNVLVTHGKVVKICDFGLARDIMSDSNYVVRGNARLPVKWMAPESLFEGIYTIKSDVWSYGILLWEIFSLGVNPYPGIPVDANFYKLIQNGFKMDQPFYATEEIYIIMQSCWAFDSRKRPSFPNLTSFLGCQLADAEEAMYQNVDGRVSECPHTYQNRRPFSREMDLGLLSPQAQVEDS

effect on BTK kinase phosphorylation/activity (BTK kinase): did not affect
SMILES: CC(C)(C)c1cc(NC(=O)Nc2ccc(-c3cn4c(n3)sc3cc(OCCN5CCOCC5)ccc34)cc2)no1 [AC220]
effect on PLCγ phosphorylation (PLCγ): did not affect | effect on phosphorylation of AKT and ERK (AKT and ERK): inhibited

effect on BTK kinase phosphorylation/activity (BTK kinase): effective
SMILES: C=CC(=O)Nc1cccc(Nc2nc(Nc3ccc(OCCOC)cc3)ncc2F)c1 [AVL-292]
effect on FLT3-mediated signaling [1]: did not exhibit any effect | effect on PLCγ phosphorylation (PLCγ): effective | effect on phosphorylation of AKT and ERK (AKT and ERK): no effect

SMILES: Cc1c(NC(=O)c2ccc(C(C)(C)C)cc2)cccc1-c1cn(C)c(=O)c(Nc2ccc(C(=O)N3CCOCC3)cc2)n1 [CGI-1746]
effect on FLT3-mediated signaling [1]: did not exhibit any effect | effect on PLCγ phosphorylation (PLCγ): effective | effect on phosphorylation of AKT and ERK (AKT and ERK): no effect

SMILES: C=CC(=O)N1CCC[C@@H](n2nc(-c3ccc(Oc4ccccc4)cc3)c3c(N)ncnc32)C1 [ibrutinib, Ibrutinib]
sensitivity to ibrutinib (proliferation) [2]: sensitive | effect on FLT3-related signaling [3]: not affected | effect on downstream mediators of BTK kinase (PLCγ; only in FLT3 wt-expressing cell lines (NOMO-1 and OCI-AML3)): affected | rescue of inhibitory effect by IL-3 treatment ([4]; FLT3-ITD BaF3 with IL-3): completely rescued | GI50 ([4]; Mus musculus, BaF3): 120 nM | GI50 (FLT3-D835H-BaF3): 63 nM | GI50 (FLT3-D835Y-BaF3): 500 nM | GI50 (TEL-FLT3-wt-BaF3): 460 nM | activity against mutation (ITD-D835Y): less active | activity against mutation (ITD-F691L): less active | activity against mutation (FLT3-K663Q): less active | effect on growth (c-Kit Ba/F3 cells): did not affect the growth | effect on growth (PDGFRα Ba/F3 cells): did not affect the growth | effect on growth (BCR-ABL Ba/F3 cells): did not affect the growth | effect on growth (NRAS Ba/F3 cells): did not affect the growth | mode of inhibition of FLT3 kinase (FLT3 kinase): reversible binding | apoptotic cell death (FLT3-ITD cell lines): induced apoptotic cell death | anti-proliferation activity [5]: dose-dependent anti-proliferation activity | growth of BTK-KD cells [6]: significantly blocked the growth | inhibition of proliferation (U937 cells): moderate inhibition of proliferation | activity against AML cell line (HL60): no apparent activity | activity against AML cell line (TF-1): no apparent activity | activity against AML cell line (THP-1): no apparent activity
